Source: article PMC10528299, “Targeting FAK/PYK2 with SJP1602 for Anti-Tumor Activity in Triple-Negative Breast Cancer” (Current Issues in Molecular Biology, 2023)

Tests used:
Assay in all cases: Eurofins kinase profiling
Type in all cases: biochemical
[1] = molecular target: T1, B-Raf(V599E)(h) (Homo sapiens, UniProt P15056, V600E); settings: read-out: residual kinase activity B-Raf(V599E)(h)
T1 construct: purchased Eurofins KinaseProfiler
Procedure: (§1) The kinase profiling analysis was performed at Eurofins (Poitiers, France). A total of 110 kinase assays were carried out according to Eurofins’ standard protocols. For protein kinase assays, the kinase activity was measured using Eurofins’ KinaseProfiler radiometric assay. In this assay, a panel of kinases was incubated with the test compound SJP1602 at a concentration of 1 µM, and the kinase activity was determined using radiolabeled phosphate as a substrate. Lipid and atypical kinase assays were conducted using Eurofins’ homogeneous time-resolved fluorescence assay. The same panel of kinases was incubated with SJP1602 at a concentration of 1 µM, and the activity of lipid and atypical kinases was measured using this assay.

[2] = molecular target: T2, FGFR3(h) (Homo sapiens, UniProt P22607); settings: read-out: residual kinase activity FGFR3(h)
T2 construct: purchased Eurofins KinaseProfiler
Procedure: as §1

[3] = molecular target: T3, HIPK3(h) (Homo sapiens, UniProt Q9H422); settings: read-out: residual kinase activity HIPK3(h)
T3 construct: purchased Eurofins KinaseProfiler
Procedure: as §1

[4] = molecular target: T4, LKB1(h) (Homo sapiens, UniProt Q15831); settings: read-out: residual kinase activity LKB1(h)
T4 construct: purchased Eurofins KinaseProfiler
T4 sequence (Q15831 1-433): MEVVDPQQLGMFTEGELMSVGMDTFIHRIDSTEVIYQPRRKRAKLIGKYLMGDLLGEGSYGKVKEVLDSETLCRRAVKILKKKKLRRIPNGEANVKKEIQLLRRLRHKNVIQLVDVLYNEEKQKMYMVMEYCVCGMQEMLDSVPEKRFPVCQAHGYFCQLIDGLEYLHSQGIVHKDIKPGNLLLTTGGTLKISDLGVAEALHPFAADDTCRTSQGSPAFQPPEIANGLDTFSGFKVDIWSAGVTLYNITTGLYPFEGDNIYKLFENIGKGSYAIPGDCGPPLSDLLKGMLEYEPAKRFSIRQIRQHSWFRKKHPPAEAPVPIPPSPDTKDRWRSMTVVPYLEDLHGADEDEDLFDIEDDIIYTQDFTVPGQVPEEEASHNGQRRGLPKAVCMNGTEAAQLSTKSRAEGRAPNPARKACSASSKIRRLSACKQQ
T4 sequence (Q7RTN6 1-431 partner): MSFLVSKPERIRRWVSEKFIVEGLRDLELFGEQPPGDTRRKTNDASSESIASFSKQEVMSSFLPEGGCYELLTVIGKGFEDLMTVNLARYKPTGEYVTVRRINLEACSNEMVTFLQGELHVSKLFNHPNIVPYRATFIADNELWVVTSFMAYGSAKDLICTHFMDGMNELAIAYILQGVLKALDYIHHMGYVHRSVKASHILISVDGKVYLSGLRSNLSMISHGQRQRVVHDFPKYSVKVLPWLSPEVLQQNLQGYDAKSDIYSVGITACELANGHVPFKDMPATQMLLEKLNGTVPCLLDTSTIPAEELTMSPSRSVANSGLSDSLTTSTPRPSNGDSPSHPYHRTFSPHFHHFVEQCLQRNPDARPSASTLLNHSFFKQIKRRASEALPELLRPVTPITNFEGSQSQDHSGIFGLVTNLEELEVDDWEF
T4 sequence (Q9Y376 1-341 partner): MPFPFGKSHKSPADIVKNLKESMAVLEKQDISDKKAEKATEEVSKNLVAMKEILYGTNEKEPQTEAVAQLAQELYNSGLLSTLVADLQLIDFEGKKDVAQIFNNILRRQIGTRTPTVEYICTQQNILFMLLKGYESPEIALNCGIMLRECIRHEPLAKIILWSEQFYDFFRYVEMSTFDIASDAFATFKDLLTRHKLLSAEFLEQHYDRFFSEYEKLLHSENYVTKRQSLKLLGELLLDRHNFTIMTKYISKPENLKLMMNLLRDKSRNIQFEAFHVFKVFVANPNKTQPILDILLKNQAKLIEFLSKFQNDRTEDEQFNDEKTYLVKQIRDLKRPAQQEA
Procedure: as §1

[5] = molecular target: T5, PDGFRα(h) (Homo sapiens, UniProt P16234); settings: read-out: residual kinase activity PDGFRα(h)
T5 construct: purchased Eurofins KinaseProfiler
Procedure: as §1

[6] = molecular target: T6, PDK1(h) (Homo sapiens, UniProt O15530); settings: read-out: residual kinase activity PDK1(h)
T6 construct: purchased Eurofins KinaseProfiler
T6 sequence (O15530 1-556): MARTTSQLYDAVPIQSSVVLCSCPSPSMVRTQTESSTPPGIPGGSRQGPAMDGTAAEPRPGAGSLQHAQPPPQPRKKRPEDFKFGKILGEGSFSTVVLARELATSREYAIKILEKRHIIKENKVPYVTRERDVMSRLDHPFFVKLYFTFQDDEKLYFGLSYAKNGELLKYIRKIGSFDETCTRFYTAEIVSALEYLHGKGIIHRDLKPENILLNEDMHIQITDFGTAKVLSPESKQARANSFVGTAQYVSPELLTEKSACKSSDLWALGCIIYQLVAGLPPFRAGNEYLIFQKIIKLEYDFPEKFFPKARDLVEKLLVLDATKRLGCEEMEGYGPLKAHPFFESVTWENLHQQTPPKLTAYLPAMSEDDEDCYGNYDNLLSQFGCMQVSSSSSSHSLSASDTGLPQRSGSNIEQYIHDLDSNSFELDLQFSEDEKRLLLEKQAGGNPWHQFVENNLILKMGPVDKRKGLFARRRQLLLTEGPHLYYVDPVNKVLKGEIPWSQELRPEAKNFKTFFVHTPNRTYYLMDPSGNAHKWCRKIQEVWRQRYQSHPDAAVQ
Procedure: as §1

T1 sequence (P15056 417-766 V600E limits assumed): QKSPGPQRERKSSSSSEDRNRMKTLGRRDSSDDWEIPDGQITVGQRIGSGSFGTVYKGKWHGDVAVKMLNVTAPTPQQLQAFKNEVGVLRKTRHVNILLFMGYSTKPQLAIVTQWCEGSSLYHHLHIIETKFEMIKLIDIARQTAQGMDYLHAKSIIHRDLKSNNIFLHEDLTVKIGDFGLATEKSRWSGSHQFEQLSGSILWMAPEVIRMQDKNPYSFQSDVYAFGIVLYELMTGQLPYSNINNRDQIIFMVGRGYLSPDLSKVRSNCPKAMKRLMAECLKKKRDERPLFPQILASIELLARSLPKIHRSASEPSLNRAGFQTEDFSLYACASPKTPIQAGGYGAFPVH
T3 sequence (Q9H422 whole entry): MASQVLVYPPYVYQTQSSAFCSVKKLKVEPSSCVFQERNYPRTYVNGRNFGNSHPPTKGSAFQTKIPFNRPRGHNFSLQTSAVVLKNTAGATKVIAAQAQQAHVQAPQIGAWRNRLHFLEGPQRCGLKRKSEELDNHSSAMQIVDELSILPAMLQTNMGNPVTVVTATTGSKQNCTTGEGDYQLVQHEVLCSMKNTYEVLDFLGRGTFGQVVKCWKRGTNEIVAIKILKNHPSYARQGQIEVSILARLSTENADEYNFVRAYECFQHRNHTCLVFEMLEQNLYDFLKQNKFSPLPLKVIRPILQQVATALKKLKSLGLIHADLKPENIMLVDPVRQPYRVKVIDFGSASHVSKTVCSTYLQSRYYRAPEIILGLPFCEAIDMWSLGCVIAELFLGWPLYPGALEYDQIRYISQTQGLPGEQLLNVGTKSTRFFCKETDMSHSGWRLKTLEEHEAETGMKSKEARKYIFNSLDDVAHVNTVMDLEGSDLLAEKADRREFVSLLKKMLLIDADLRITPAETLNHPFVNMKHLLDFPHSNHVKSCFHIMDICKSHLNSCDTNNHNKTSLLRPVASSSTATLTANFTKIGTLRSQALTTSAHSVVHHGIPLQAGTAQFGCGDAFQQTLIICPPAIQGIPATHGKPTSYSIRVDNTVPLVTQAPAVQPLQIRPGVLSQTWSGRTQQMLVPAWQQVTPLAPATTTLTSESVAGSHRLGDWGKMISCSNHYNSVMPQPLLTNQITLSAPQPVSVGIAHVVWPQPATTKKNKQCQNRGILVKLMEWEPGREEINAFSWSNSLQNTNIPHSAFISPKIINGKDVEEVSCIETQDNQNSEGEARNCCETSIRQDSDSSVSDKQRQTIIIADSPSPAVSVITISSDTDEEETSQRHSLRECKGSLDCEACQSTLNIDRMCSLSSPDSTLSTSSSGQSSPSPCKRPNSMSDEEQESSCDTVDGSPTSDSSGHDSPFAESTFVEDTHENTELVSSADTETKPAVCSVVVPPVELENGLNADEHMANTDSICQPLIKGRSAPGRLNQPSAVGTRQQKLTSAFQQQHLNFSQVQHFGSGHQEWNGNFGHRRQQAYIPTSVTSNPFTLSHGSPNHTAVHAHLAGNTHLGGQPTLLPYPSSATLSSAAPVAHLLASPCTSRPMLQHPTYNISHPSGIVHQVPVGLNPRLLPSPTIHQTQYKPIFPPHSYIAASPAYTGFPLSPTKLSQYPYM
T2 sequence (P22607 23-806): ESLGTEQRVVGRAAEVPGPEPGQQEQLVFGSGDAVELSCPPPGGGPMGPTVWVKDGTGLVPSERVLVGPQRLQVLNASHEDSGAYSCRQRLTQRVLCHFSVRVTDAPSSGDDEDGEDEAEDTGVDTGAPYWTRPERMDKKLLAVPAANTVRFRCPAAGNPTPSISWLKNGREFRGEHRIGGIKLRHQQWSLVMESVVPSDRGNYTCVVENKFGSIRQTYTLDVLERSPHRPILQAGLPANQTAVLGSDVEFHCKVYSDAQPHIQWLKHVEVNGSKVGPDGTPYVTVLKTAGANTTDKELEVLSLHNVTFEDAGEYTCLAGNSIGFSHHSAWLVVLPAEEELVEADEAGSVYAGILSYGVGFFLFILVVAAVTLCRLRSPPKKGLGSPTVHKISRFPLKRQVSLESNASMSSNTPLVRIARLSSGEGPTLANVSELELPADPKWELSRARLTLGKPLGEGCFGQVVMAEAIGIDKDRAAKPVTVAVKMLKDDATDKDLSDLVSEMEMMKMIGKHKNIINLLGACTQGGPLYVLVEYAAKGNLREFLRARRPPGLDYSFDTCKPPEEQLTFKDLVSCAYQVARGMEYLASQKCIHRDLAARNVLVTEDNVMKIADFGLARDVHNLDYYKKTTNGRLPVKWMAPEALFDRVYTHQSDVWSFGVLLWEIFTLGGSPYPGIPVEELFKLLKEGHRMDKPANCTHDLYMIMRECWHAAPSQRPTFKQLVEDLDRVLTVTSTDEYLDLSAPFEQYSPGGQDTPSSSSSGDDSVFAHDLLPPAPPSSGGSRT
T5 sequence (P16234 24-1089): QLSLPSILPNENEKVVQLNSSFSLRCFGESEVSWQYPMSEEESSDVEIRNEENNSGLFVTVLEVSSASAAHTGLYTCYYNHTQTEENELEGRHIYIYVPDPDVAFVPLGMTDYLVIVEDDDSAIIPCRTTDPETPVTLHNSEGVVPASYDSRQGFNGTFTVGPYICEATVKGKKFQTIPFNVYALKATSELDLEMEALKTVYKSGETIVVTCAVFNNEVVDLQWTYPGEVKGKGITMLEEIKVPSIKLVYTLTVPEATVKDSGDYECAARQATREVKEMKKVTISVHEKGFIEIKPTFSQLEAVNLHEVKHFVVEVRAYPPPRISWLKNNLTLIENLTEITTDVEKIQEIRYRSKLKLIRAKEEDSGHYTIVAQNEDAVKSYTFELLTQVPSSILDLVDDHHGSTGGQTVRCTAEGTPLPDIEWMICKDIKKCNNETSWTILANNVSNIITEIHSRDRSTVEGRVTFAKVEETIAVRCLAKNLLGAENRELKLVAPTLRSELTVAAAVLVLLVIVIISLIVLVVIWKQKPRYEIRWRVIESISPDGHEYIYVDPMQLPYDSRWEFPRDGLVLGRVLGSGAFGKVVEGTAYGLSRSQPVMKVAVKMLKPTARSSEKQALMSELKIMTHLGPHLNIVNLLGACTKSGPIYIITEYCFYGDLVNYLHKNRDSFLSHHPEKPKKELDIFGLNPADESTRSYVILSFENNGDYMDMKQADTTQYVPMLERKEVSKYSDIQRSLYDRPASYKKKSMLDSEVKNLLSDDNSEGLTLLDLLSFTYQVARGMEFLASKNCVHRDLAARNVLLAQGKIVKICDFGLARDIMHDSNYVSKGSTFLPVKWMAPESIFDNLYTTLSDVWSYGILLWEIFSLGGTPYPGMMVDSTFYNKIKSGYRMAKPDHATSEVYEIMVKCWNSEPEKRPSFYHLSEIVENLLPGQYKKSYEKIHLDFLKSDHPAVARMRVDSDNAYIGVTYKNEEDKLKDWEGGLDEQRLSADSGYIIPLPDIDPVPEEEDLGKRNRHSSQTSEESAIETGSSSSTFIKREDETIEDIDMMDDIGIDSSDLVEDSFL

Molecule `CNC(=O)c1ccc(Nc2ncc(C(F)(F)F)c(NCc3nccnc3N(C)S(C)(=O)=O)n2)cc1` [VS-6063, Defactinib] has a remaining activity at 1 µM [1] of 89%, a remaining activity at 1 µM [2] of 44% and a remaining activity at 1 µM [3] of 54%. For the same molecule, the remaining activity at 1 µM [4] was 89%, the remaining activity at 1 µM [5] was 79% and the remaining activity at 1 µM [6] was 66%.
In the case of `CONC(=O)c1ccccc1Nc1cc(Nc2cc(C)nn2C(C)C)ncc1Cl` [GSK2256098], the remaining activity at 1 µM [1] is reported as 67%, the remaining activity at 1 µM [2] is reported as 91% and the remaining activity at 1 µM [3] is reported as 106%. It also gave a remaining activity at 1 µM [4] of 98%, a remaining activity at 1 µM [5] of 101% and a remaining activity at 1 µM [6] of 117%.
For `CNC(=O)c1cccc(C)c1Nc1nc(Nc2ccc(N3CCN(C4C5CC6CC4CC(O)(C6)C5)CC3)cc2OC)ncc1C(F)(F)F` (stereo not drawn) [SJP1602, 2-((2-((4-(4-((2s,5r)-5-hydroxyadamantan-2-yl)piperazin-1-yl)-2-methoxyphenyl)amino)-5-(trifluoromethyl)pyrimidin-4-yl)amino)-N,3-dimethylbenzamide], the remaining activity at 1 µM [1] was 105%, the remaining activity at 1 µM [2] was 86% and the remaining activity at 1 µM [3] was 100%. It also gave a remaining activity at 1 µM [4] of 96%, a remaining activity at 1 µM [5] of 97% and a remaining activity at 1 µM [6] of 102%.
